Data as given in ChEMBL document CHEMBL1135111, “Antifungal sordarins. part 3: synthesis and structure-activity relationships of 2',3'-fused oxirane derivatives” (Bioorg Med Chem Lett, 2002).
≈ marks a conversion by molar mass, not a printed value.

What was measured:
[1] = tested on: Candida albicans; assay: Compound was evaluated for antifungal activity as minimum cell growth inhibition against Candida albicans - 2005; type: functional
[2] = tested on: Candida albicans; assay: Compound was evaluated for antifungal activity as minimum cell growth inhibition against Candida albicans - 4711E; type: functional
[3] = tested on: Kluyveromyces marxianus; assay: Compound was evaluated for antifungal activity as minimum cell growth inhibition against Candida pseudotropicalis -2371; type: functional, candida pseudotrop
[4] = tested on: Nakaseomyces glabratus; assay: Compound was evaluated for antifungal activity as minimum cell growth inhibition against Candida glabrata - 2375E; type: functional
[5] = tested on: Cryptococcus neoformans; assay: Compound was evaluated for antifungal activity as minimum cell growth inhibition against Cryptococcus neoformans - 2867; type: functional
[6] = tested on: Candida tropicalis; assay: Compound was evaluated for antifungal activity as minimum cell growth inhibition against Candida tropicalis - 2808; type: functional

Compound	MIC [1]	MIC [2]	MIC [3]	MIC [4]	MIC [5]	MIC [6]
CO[C@H]1[C@@H]2O[C@@H]2[C@H](OCC23C[C@@H]4[C@H](C)CC[C@H]4C4(C=O)CC2C=C(C(C)C)C34C(=O)O)O[C@@H]1C (some centres not stated)	0.06 µg/mL (≈ 0.126 µM)	0.25 µg/mL (≈ 0.527 µM)	0.03 µg/mL (≈ 0.0632 µM)	16 µg/mL (≈ 33.7 µM)	8 µg/mL (≈ 16.9 µM)	0.25 µg/mL (≈ 0.527 µM)
C/C=C/C=C(/O[C@H]1[C@H](O)[C@H](OCC23C[C@@H]4[C@H](C)CC[C@H]4C4(C=O)CC2C=C(C(C)C)C34C(=O)O)O[C@H](C)[C@H]1O)C(=O)C(CC)CC (some centres not stated)	0.015 µg/mL (≈ 0.0233 µM)	0.25 µg/mL (≈ 0.389 µM)	0.03 µg/mL (≈ 0.0467 µM)	> 125 µg/mL	0.25 µg/mL (≈ 0.389 µM)	0.06 µg/mL (≈ 0.0933 µM)
COC[C@H]1O[C@@H](OCC23C[C@@H]4[C@H](C)CC[C@H]4C4(C=O)CC2C=C(C(C)C)C34C(=O)O)[C@H]2O[C@H]2[C@@H]1OC (some centres not stated)	0.06 µg/mL (≈ 0.119 µM)	0.5 µg/mL (≈ 0.991 µM)	0.25 µg/mL (≈ 0.495 µM)	62 µg/mL (≈ 123 µM)	16 µg/mL (≈ 31.7 µM)	4 µg/mL (≈ 7.93 µM)
CO[C@H]1[C@H]2O[C@H]2[C@H](OCC23C[C@@H]4[C@H](C)CC[C@H]4C4(C=O)CC2C=C(C(C)C)C34C(=O)O)O[C@@H]1C (some centres not stated)	0.25 µg/mL (≈ 0.527 µM)	–	0.12 µg/mL (≈ 0.253 µM)	125 µg/mL (≈ 263 µM)	> 125 µg/mL	4 µg/mL (≈ 8.43 µM)
CO[C@H]1[C@@H]2S[C@@H]2[C@H](OCC23C[C@@H]4[C@H](C)CC[C@H]4C4(C=O)CC2C=C(C(C)C)C34C(=O)O)O[C@@H]1C (some centres not stated)	0.03 µg/mL (≈ 0.0611 µM)	0.12 µg/mL (≈ 0.245 µM)	0.008 µg/mL (≈ 0.0163 µM)	16 µg/mL (≈ 32.6 µM)	> 125 µg/mL	0.5 µg/mL (≈ 1.02 µM)

The remaining compounds from weak to strong by MIC [1], led by results:

MIC [1]	MIC [2]	MIC [3]	MIC [4]	MIC [5]	MIC [6]	Compound
4 µg/mL (≈ 8.15 µM)	16 µg/mL (≈ 32.6 µM)	16 µg/mL (≈ 32.6 µM)	> 125 µg/mL	> 125 µg/mL	31 µg/mL (≈ 63.2 µM)	CO[C@H]1[C@@H]2O[C@@H]2[C@H](OCC23C[C@@H]4[C@H](C)CC[C@H]4C4(C=O)CC2C=C(C(C)C)C34C(=O)O)O[C@@H]1CO (some centres not stated)
4 µg/mL (≈ 8.43 µM)	16 µg/mL (≈ 33.7 µM)	2 µg/mL (≈ 4.21 µM)	31 µg/mL (≈ 65.3 µM)	125 µg/mL (≈ 263 µM)	> 125 µg/mL	CO[C@H]1[C@H]2O[C@H]2[C@@H](OCC23C[C@@H]4[C@H](C)CC[C@H]4C4(C=O)CC2C=C(C(C)C)C34C(=O)O)O[C@@H]1C (some centres not stated)
4 µg/mL (≈ 8.43 µM)	8 µg/mL (≈ 16.9 µM)	1 µg/mL (≈ 2.11 µM)	31 µg/mL (≈ 65.3 µM)	> 125 µg/mL	31 µg/mL (≈ 65.3 µM)	CO[C@H]1[C@@H]2O[C@@H]2[C@@H](OCC23C[C@@H]4[C@H](C)CC[C@H]4C4(C=O)CC2C=C(C(C)C)C34C(=O)O)O[C@@H]1C (some centres not stated)
